Measurements: patent US20140323500A1, “NADPH OXIDASE 4 INHIBITORS AND USE THEREOF” (GENKYOTEX SA, priority 2011, published 2014)

Biological target: T1, human Nox4 (Homo sapiens, UniProt Q9NPH5)
T1 construct: expressed in transfected cells; host or cells: T-REx-293 (hNOX4 T-REx-293), tetracycline-induced; membrane fraction
T1 sequence (Q9NPH5 1-578): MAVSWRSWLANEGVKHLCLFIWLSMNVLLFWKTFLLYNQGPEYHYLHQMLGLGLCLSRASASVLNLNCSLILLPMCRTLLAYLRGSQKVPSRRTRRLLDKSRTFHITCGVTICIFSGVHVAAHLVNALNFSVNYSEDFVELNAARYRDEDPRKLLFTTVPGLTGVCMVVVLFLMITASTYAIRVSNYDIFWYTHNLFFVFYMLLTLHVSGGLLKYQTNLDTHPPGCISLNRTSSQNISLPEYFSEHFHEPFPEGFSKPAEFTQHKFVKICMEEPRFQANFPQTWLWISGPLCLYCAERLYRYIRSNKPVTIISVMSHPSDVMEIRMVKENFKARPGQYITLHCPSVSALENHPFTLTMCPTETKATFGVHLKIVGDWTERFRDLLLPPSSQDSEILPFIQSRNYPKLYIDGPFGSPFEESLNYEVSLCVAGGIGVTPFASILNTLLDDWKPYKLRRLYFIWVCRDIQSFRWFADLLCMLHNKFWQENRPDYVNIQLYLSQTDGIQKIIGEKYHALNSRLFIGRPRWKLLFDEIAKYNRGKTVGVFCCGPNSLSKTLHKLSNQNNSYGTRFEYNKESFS
T1 sequence (P13498 2-195 partner limits assumed): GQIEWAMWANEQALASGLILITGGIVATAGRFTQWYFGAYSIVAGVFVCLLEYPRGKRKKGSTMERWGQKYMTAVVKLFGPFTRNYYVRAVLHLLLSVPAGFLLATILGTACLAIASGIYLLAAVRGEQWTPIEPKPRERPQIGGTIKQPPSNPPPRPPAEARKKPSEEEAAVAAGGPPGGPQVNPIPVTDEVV
Test: ROS production by membranes expressing human Nox4, cell-free Amplex Red assay
Type: biochemical
Conditions: cell-free membranes, Amplex Red; Cheng-Prusoff; average of at least three experiments in triplicate; read-out: Ki hNox4
In short: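 Membranes from tetracycline-induced (1 μg/ml, 24 h) T-REx cells overexpressing human Nox4, incubated in PBS with Amplex Red, HRP and co-factors; NADPH starts ROS production. Compounds 1 nM-100 μM, 20 min at 37° C.; fluorescence (ex 544/em 590 nm) over 10 min; Ki via Cheng-Prusoff, ≥3 experiments in triplicate.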

A Ki of 75 nM was found for `COc1ccc(-c2c3c(=O)n(-c4ccccc4OC)[nH]c3cc(=O)n2Cc2cccnc2)c(F)c1` [Compound (1), 4-(2-fluoro-4-methoxyphenyl)-2-(2-methoxyphenyl)-5-(pyridin-3-ylmethyl)-1H-pyrazolo[4,3-c]pyridine-3,6(2H,5H)-dione] in this work.
